Data taken from a compilation of properties of binary mixtures (doi:10.1016/j.molliq.2022.120410).

Assay: xn = mol fraction of the nth substance listed
Conditions: 101.3 kPa

CC[NH3+].O=[N+]([O-])[O-] + OCCOCCO
speed of sound [m/s]
Conditions	298.1 K	308.1 K	318.1 K
x1 = 0.0488	1599.6	1576.8	1553.8
x1 = 0.0983	1614.6	1592	1569.5
x1 = 0.197	1632	1609.6	1587.5
x1 = 0.2961	1639.9	1619.1	1598.3
x1 = 0.3955	1644.5	1625.4	1605.9
x1 = 0.4954	1643.9	1625.6	1607.3
x1 = 0.5955	1643.2	1626.3	1609.1
x1 = 0.6961	1641.7	1625.6	1609.1
x1 = 0.797	1640	–	1607.8
x1 = 0.8983	1638.6	1622.8	1607.3
x1 = 1	–	1624.7	1609.3

OCCOCCO + CC[NH3+].O=[N+]([O-])[O-]
x2 = 0
Conditions	speed of sound [m/s]
298.1 K	1580.6
308.1 K	1556.6
